Assay results from publication PMC11603219, “Novel Dibenzoazepine-Substituted Triazole Hybrids as Cholinesterase and Carbonic Anhydrase Inhibitors and Anticancer Agents: Synthesis, Characterization, Biological Evaluation, and In Silico Studies” (ACS Omega, 2024).

Experiments:
BChE from equine serum = biological target: T1, BChE from equine serum (Equus caballus, UniProt P81908); assay: biochemical; type: biochemical
T1 construct: from tissue; host or cells: equine serum
Procedure: All of the measurements were repeated thrice. AChE and BChE activity were assessed using a modified version of the Ellman method.[48] The measurement of AChE/BChE activity was conducted with acetylthiocholine iodide/butyrylthiocholine iodide as substrates along with 5,5-dithiobis (2-nitrobenzoic) acid.

AChE = AChE (Homo sapiens, UniProt P22303); assay: biochemical; type: biochemical
AChE, sequence (P22303 32-614): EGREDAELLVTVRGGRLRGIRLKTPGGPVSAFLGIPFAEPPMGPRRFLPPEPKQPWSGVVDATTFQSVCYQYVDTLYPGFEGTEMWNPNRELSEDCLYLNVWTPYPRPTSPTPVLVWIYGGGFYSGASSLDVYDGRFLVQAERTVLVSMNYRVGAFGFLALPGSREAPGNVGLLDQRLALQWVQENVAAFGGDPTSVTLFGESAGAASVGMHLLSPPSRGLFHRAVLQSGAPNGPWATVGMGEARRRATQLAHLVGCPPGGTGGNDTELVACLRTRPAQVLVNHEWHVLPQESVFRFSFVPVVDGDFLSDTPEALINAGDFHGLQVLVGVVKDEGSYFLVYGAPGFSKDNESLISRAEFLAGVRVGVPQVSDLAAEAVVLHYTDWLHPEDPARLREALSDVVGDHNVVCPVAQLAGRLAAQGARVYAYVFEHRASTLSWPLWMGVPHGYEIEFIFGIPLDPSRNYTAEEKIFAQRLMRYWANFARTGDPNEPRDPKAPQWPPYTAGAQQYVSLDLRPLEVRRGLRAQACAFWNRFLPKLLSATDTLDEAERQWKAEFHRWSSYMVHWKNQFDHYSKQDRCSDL

MDA-MB-231 cells = assay: MTT cytotoxicity assay, MDA-MB-231; type: cell-based; settings: Homo sapiens, 72 h treatment
BT-549 cells [1] = assay: Colony formation inhibition assay; type: cell-based, human; settings: for colony formation inhibition: 10 μM, 20 μM, and 30 μM, 7–10 days
hCA I = hCA I (Homo sapiens, UniProt P00915); assay: biochemical; type: biochemical
hCA I, sequence (P00915 whole entry): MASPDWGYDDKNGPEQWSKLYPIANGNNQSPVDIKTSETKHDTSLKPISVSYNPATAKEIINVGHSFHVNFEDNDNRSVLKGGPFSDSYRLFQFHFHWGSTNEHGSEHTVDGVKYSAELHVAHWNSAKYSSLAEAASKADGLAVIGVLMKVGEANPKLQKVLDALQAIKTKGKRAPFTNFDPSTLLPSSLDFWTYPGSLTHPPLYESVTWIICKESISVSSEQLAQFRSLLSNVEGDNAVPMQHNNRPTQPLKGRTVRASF

hCA II = hCA II (Homo sapiens, UniProt P00918); assay: biochemical; type: biochemical
BT-549 cells [2] = assay: MTT cytotoxicity assay, BT-549; type: cell-based, human; settings: 96 h treatment
[3] = ratio of Ki versus tacrine (TAC/THA)

T1 sequence (P81908 whole entry): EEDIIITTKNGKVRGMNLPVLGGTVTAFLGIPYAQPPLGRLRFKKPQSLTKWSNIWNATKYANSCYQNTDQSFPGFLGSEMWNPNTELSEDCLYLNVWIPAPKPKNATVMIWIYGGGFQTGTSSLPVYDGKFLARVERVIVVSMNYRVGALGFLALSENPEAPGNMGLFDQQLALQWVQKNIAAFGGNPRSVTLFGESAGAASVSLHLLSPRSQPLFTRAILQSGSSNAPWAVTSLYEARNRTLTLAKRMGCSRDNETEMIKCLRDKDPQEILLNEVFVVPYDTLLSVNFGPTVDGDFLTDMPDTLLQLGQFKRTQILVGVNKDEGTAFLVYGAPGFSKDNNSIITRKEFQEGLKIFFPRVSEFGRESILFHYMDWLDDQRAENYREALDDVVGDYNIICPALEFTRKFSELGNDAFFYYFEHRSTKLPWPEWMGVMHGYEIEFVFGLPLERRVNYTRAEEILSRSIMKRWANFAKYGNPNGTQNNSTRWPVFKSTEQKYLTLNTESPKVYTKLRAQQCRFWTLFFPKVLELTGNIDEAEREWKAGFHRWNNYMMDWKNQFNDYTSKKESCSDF

SMILES: O=c1ccc2ccc(OCCn3cc(CN4c5ccccc5C=Cc5ccccc54)nn3)cc2o1 [Compound 16, 7-(2-(4-((5H-Dibenzo[b,f]azepin-5-yl)methyl)-1H-1,2,3-triazol-1-yl)ethoxy)-2H-chromen-2-one]
- Ki (BChE from equine serum): 0.0112 ± 0.00155 µM
- Ki (AChE): 0.0175 ± 0.00219 µM
- IC50 (MDA-MB-231 cells): > 150 µM
- colony formation inhibition (BT-549 cells [1]): suppressed the colonies
- Ki (hCA I): 0.122 ± 0.0202 µM
- Ki (hCA II): 0.0546 ± 0.00199 µM
- IC50 (BT-549 cells [2]): 17.7 ± 2.54 µM
- IC50 (BT-549 cells [2]; Homo sapiens, BT-549, 96 h): ≤ 20 µM

SMILES: O=[N+]([O-])c1ccc(-n2cc(CN3c4ccccc4C=Cc4ccccc43)nn2)cc1 [Compound 18, 5-((1-(4-Nitrophenyl)-1H-1,2,3-triazol-4-yl)methyl)-5H-dibenzo[b,f]azepine]
- Ki (BChE from equine serum): 0.0391 ± 0.00882 µM
- Ki (AChE): 0.0447 ± 0.00961 µM
- IC50 (MDA-MB-231 cells): > 150 µM
- Ki (hCA I): 0.118 ± 0.021 µM
- Ki (hCA II): 0.0697 ± 0.00593 µM
- IC50 (BT-549 cells [2]; Homo sapiens, BT-549, 96 h): > 40 µM

SMILES: Oc1ccccc1-n1cc(CN2c3ccccc3C=Cc3ccccc32)nn1 [Compound 20, 2-(4-((5H-Dibenzo[b,f]azepin-5-yl)methyl)-1H-1,2,3-triazol-1-yl)phenol]
- Ki (BChE from equine serum): 0.0162 ± 0.00243 µM
- Ki (AChE): 0.0228 ± 0.00478 µM
- IC50 (MDA-MB-231 cells): > 100 µM
- Ki (hCA I): 0.0804 ± 0.0156 µM
- Ki (hCA II): 0.0894 ± 0.00492 µM
- IC50 (BT-549 cells [2]; Homo sapiens, BT-549, 96 h): 36.2 ± 3.77 µM

SMILES: NS(=O)(=O)c1ccc(-n2cc(CN3c4ccccc4C=Cc4ccccc43)nn2)cc1 [Compound 17, 4-(4-((5H-Dibenzo[b,f]azepin-5-yl)methyl)-1H-1,2,3-triazol-1-yl)benzenesulfonamide]
- Ki (BChE from equine serum): 0.0153 ± 0.00112 µM
- Ki (AChE): 0.019 ± 0.00544 µM
- IC50 (MDA-MB-231 cells): 36.5 ± 1.62 µM
- concentration at which BT-549 colonies were inhibited/suppressed (BT-549 cells [1]): 20 µM
- colony formation inhibition (BT-549 cells [1]): suppressed the colonies
- Ki (hCA I): 0.0405 ± 0.0111 µM
- Ki (hCA II): 0.0567 ± 0.0115 µM
- IC50 (BT-549 cells [2]): 17.4 ± 3.09 µM
- IC50 (BT-549 cells [2]; Homo sapiens, BT-549, 96 h): ≤ 20 µM

SMILES: COc1cc(-n2cc(CN3c4ccccc4C=Cc4ccccc43)nn2)cc(OC)c1OC [Compound 19, 5-((1-(3,4,5-Trimethoxyphenyl)-1H-1,2,3-triazol-4-yl)methyl)-5H-dibenzo[b,f]azepine]
- Ki (BChE from equine serum): 0.00222 ± 0.00017 µM
- Ki (AChE): 0.0345 ± 0.00854 µM
- IC50 (MDA-MB-231 cells): > 150 µM
- concentration at which BT-549 colonies were inhibited/suppressed (BT-549 cells [1]): 20 µM
- colony formation inhibition (BT-549 cells [1]): suppressed the colonies
- Ki (hCA I): 0.094 ± 0.0155 µM
- Ki (hCA II): 0.0614 ± 0.00911 µM
- IC50 (BT-549 cells [2]): 18.1 ± 2.14 µM
- IC50 (BT-549 cells [2]; Homo sapiens, BT-549, 96 h): ≤ 20 µM

SMILES: C1=Cc2ccccc2N(Cc2cn(Cc3ccccc3)nn2)c2ccccc21 [Compound 12, 5-((1-Benzyl-1H-1,2,3-triazol-4-yl)methyl)-5H-dibenzo[b,f]azepine]
- Ki (BChE from equine serum): 0.0488 ± 0.00862 µM
- Ki (AChE): 0.0289 ± 0.00352 µM
- IC50 (MDA-MB-231 cells): 12.5 ± 1.92 µM
- Ki (hCA I): 0.0488 ± 0.00468 µM
- Ki (hCA II): 0.0405 ± 0.00585 µM
- IC50 (BT-549 cells [2]; Homo sapiens, BT-549, 96 h): 33.5 ± 3.03 µM

SMILES: C1=Cc2ccccc2N(Cc2cn(-c3cccc4ccccc34)nn2)c2ccccc21 [Compound 13, 5-((1-(Naphthalen-1-yl)–1H-1,2,3-triazol-4-yl)methyl)-5H-dibenzo[b,f]azepine]
- Ki (BChE from equine serum): 0.00115 ± 0.00015 µM
- times more inhibition effect than compound 12, BChE (BChE from equine serum; ratio of Ki versus compound 12): approximately 42.48 times
- fold more active than tacrine for BChE (BChE from equine serum; [3]): 49.70 fold
- times more inhibition effect, BChE, compound 18 comparison (BChE from equine serum; ratio of Ki, compound 13 and compound 18): 34.04 times
- Ki (AChE): 0.0141 ± 0.00381 µM
- fold more active than tacrine for AChE (AChE; [3]): 5.49 fold
- IC50 (MDA-MB-231 cells): > 125 µM
- Ki (hCA I): 0.0621 ± 0.00853 µM
- Ki (hCA II): 0.0288 ± 0.00464 µM
- IC50 (BT-549 cells [2]; Homo sapiens, BT-549, 96 h): > 40 µM

SMILES: COc1ccc(-n2cc(CN3c4ccccc4C=Cc4ccccc43)nn2)cc1 [Compound 15, 5-((1-(4-Methoxyphenyl)-1H-1,2,3-triazol-4-yl)methyl)-5H-dibenzo[b,f]azepine]
- Ki (BChE from equine serum): 0.00411 ± 0.00046 µM
- Ki (AChE): 0.0241 ± 0.00045 µM
- IC50 (MDA-MB-231 cells): > 150 µM
- concentration at which BT-549 colonies were inhibited/suppressed (BT-549 cells [1]): 20 µM
- colony formation inhibition (BT-549 cells [1]): suppressed the colonies
- Ki (hCA I): 0.0547 ± 0.00963 µM
- Ki (hCA II): 0.0391 ± 0.00217 µM
- IC50 (BT-549 cells [2]; Homo sapiens, BT-549, 96 h): 26.8 ± 4.6 µM

SMILES: C1=Cc2ccccc2N(Cc2cn(-c3cccnc3)nn2)c2ccccc21 [Compound 14, 5-((1-(Pyridin-3-yl)-1H-1,2,3-triazol-4-yl)methyl)-5H-dibenzo[b,f]azepine]
- Ki (BChE from equine serum): 0.00765 ± 0.00149 µM
- Ki (AChE): 0.0212 ± 0.00587 µM
- IC50 (MDA-MB-231 cells): > 75 µM
- concentration at which BT-549 colonies were inhibited/suppressed (BT-549 cells [1]): 10 µM
- colony formation inhibition (BT-549 cells [1]): suppressed the colonies
- Ki (hCA I): 0.0299 ± 0.00593 µM
- fold more active than acetazolamide for hCA I (hCA I; ratio of Ki versus AZA): 4.16 fold
- Ki (hCA II): 0.0177 ± 0.00154 µM
- fold more active than acetazolamide for hCA II (hCA II; ratio of Ki versus AZA): 5.79 fold
- IC50 (BT-549 cells [2]): 16.6 ± 0.97 µM
- IC50 (BT-549 cells [2]; Homo sapiens, BT-549, 96 h): ≤ 20 µM
